From patent publication US12129237B2, “Substituted diaminocarboxamide and diaminocarbonitrile pyrimidines, compositions thereof, and methods of treatment therewith” (SIGNAL PHARMACEUTICALS, LLC, priority 2011, dated 2024)

Biological target: T1, JNK1 (Homo sapiens, UniProt P45983)
T1 construct: purchased Carna Biosciences
Experiment: JNK1 biochemical assays (one or more of: time resolved fluorescence, Z'-LYTE Cascade, radioactive)
Settings: one or more of the JNK1 biochemical assays; read-out: Act. Level (JNK1 IC50 activity level)
Description: JNK1 Assay. A 384-well time resolved fluorescence assay was used to monitor JNK1 activity. The JNK1 assay was run in the following assay buffer: 50 mM HEPES, 10 mM MgCl2, 1 mM EGTA, 2 mM DTT, and 0.01% Tween 20. To initiate the reaction 100 nM of ULight™-labeled 4EBP1 peptide (Perkin-Elmer) and 5 μM of ATP were mixed with 500 pM of JNK1 (Carna Biosciences), for a total assay volume of 20 μL in each well. The assay was incubated at room temperature for 1 h and terminated using a mixture of 30 mM EDTA and 4 nM Eu-anti-4EBP1, by adding 20 μL of stop solution to each well. Plates were read on a Perkin-Elmer Envision Reader.
JNK1 Assay. The JNK1 Z′-LYTE® Cascade kinase assay was run in the following buffer: 50 mM HEPES at pH 7.5, 0.01% BRIJ-35, 10 mM MgCl2, 1 mM EGTA, and 1 mM DTT. […] The assay was incubated at room temperature for 1 h. […] The data was then read on a fluorescence plate reader and analyzed.
JNK1 assay. The radioactive JNK kinase assay was carried out in a 96-well plate format at a final volume of 100 μL. […] JNK1 was diluted in the following dilution buffer (20 mM HEPES pH 7.6, 0.1 mM EDTA, 2.5 mM MgCl2, 0.004% (w/v) Triton X100, 2 μg/ml Leupeptin, 20 mM B-glycerol phosphate, 0.1 mM Na3VO4 dithiothreitol) and then pre-mixed with cJun diluted in the substrate solution buffer (20 mM HEPES pH 7.6, 50 mM NaCl, 0.1 mM EDTA, 2.5 mM MgCl2, 0.05% (w/v) Triton X100). […] The enzyme, substrate and inhibitor mixture was allowed to equilibrate at room temperature for 15 minutes. The reaction was started by the addition of 10 μL of 10×ATP in kinase buffer (130 mM MgCl2, 6 mM dithiothreitol, 150 mM para-nitrophenyl phosphate, 100 μCi/ml γ-[^33P]-ATP). Reactions were allowed to proceed for 60 minutes before precipitation of protein via trichloroacetic acid (7.2% TCA final). […] The precipitate was washed with Phosphate Buffered Saline and the amount of phosphate incorporated into cJun was quantified by scintillation counting using a Packard Topcount-NXT. All assays were conducted under conditions where phosphate incorporation was linear with respect to time and enzyme concentration.

T1 sequence (P45983 whole entry): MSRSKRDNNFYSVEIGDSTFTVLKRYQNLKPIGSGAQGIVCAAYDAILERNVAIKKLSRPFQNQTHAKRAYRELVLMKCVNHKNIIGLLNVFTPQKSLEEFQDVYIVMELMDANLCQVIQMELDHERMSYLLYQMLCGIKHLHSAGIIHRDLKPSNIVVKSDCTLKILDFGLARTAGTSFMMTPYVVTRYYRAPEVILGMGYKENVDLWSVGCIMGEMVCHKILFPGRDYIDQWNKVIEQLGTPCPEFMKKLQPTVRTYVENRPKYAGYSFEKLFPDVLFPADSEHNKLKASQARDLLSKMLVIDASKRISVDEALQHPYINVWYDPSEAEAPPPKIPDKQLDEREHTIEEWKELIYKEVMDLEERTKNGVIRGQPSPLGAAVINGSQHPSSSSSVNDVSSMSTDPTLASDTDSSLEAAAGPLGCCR

SMILES | IC50 [nM]
CC(C)Nc1nc(NC23CCC(O)(CC2)CC3)ncc1C(N)=O [Example 202, 2-(4-hydroxybicyclo[2.2.2]octan-1-ylamino)-4-(isopropylamino)pyrimidine-5-carboxamide] | < 200
CC(=O)N[C@H]1CC[C@H](Nc2ncc(C(N)=O)c(NC(C)C)n2)CC1 [Example 203, 2-((1r,4r)-4-acetamidocyclohexylamino)-4-(isopropylamino)pyrimidine-5-carboxamide] | < 200
NC(=O)c1cnc(N[C@H]2CC[C@H](OC3CC3)CC2)nc1N[C@@H]1CCC[C@H](O)C1 [Example 205, 2-((1r,4R)-4-cyclopropoxycyclohexylamino)-4-((1R,3S)-3-hydroxycyclohexylamino)pyrimidine-5-carboxamide] | < 200
CNC(=O)c1cnc(N[C@H]2CC[C@H](OC)CC2)nc1N[C@@H]1CCC[C@H](O)C1 [Example 206, 4-((1R,3S)-3-hydroxycyclohexylamino)-2-((1r,4R)-4-methoxycyclohexylamino)-N-methylpyrimidine-5-carboxamide] | 200 to 800
C[C@@H]1CC[C@@H](Nc2nc(NC3CCOCC3)ncc2C(N)=O)C[C@H]1O [Example 208, 4-((1R,3R,4R)-3-hydroxy-4-methylcyclohexylamino)-2-(tetrahydro-2H-pyran-4-ylamino)pyrimidine-5-carboxamide] | < 200
CCO[C@H]1CC[C@H](Nc2ncc(C(N)=O)c(N[C@@H]3CCC[C@@H]3CO)n2)CC1 [Example 209, 2-((1r,4R)-4-ethoxycyclohexylamino)-4-((1R,2S)-2-(hydroxymethyl)cyclopentylamino)pyrimidine-5-carboxamide] | < 200
CCO[C@H]1CC[C@H](Nc2ncc(C(N)=O)c(NC(C)(C)C)n2)CC1 [Example 211, 4-(tert-butylamino)-2-((1r,4r)-4-ethoxycyclohexylamino)pyrimidine-5-carboxamide] | < 200
CC(C)(C)Nc1nc(N[C@H]2CC[C@H](OCC(F)(F)F)CC2)ncc1C(N)=O [Example 212, 4-(tert-butylamino)-2-((1r,4r)-4-(2,2,2-trifluoroethoxy)cyclohexylamino)pyrimidine-5-carboxamide] | < 200
CC(C)(C)Nc1ncc(C(N)=O)c(N[C@@H]2CCC[C@](C)(O)C2)n1 [Example 213, 2-(tert-butylamino)-4-((1R,3S)-3-hydroxy-3-methylcyclohexylamino)pyrimidine-5-carboxamide] | < 200
CN[C@H]1CC[C@H](Nc2ncc(C(N)=O)c(NC(C)C)n2)CC1 [Example 214, 4-(isopropylamino)-2-((1r,4r)-4-(methylamino)cyclohexylamino)pyrimidine-5-carboxamide] | < 200
CO[C@H]1CC[C@H](Nc2ncc(C(N)=O)c(N[C@]3(C)CCC[C@H](O)C3)n2)CC1 [Example 215, 4-((1R,3S)-3-hydroxy-1-methylcyclohexylamino)-2-((1r,4R)-4-methoxycyclohexylamino)pyrimidine-5-carboxamide] | < 200
CO[C@H]1CC[C@](C)(Nc2ncc(C(N)=O)c(N[C@@H]3CCC[C@H](O)C3)n2)CC1 [Example 216, 4-((1R,3S)-3-hydroxycyclohexylamino)-2-((1r,4R)-4-methoxy-1-methylcyclohexylamino)pyrimidine-5-carboxamide] | < 200
NC(=O)c1cnc(N[C@H]2CC[C@H](O)CC2)nc1NC1CC(F)(F)C1 [Example 217, 4-(3,3-difluorocyclobutylamino)-2-((1r,4r)-4-hydroxycyclohexylamino)pyrimidine-5-carboxamide] | < 200
NC(=O)c1cnc(N[C@H]2CC[C@H](O)CC2)nc1NCCC1CC1 [Example 218, 4-(2-cyclopropylethylamino)-2-((1r,4r)-4-hydroxycyclohexylamino)pyrimidine-5-carboxamide] | < 200
NC(=O)c1cnc(N[C@H]2CC[C@H](O)CC2)nc1NCCC1CCC1 [Example 219, 4-(2-cyclobutylethylamino)-2-((1r,4r)-4-hydroxycyclohexylamino)pyrimidine-5-carboxamide] | < 200
CC(C)CCNc1nc(N[C@H]2CC[C@H](O)CC2)ncc1C(N)=O [Example 220, 2-((1r,4r)-4-hydroxycyclohexylamino)-4-(isopentylamino)pyrimidine-5-carboxamide] | < 200
NC(=O)c1cnc(N[C@H]2CC[C@H](O)CC2)nc1NCC1CCC1 [Example 221, 4-(cyclobutylmethylamino)-2-((1r,4r)-4-hydroxycyclohexylamino)pyrimidine-5-carboxamide] | < 200
CC(C)Nc1nc(NC2CCOCC2)ncc1C(N)=O [Example 222, 4-(isopropylamino)-2-(tetrahydro-2H-pyran-4-ylamino)pyrimidine-5-carboxamide] | 200 to 800
CCO[C@H]1CC[C@H](Nc2ncc(C(N)=O)c(NC(C)C)n2)CC1 [Example 224, 2-((1r,4r)-4-ethoxycyclohexylamino)-4-(isopropylamino)pyrimidine-5-carboxamide] | < 200
CCC(C)(C)Nc1nc(N[C@H]2CC[C@H](O)CC2)ncc1C(N)=O [Example 225, 2-((1r,4r)-4-hydroxycyclohexylamino)-4-(tert-pentylamino)pyrimidine-5-carboxamide] | < 200
NC(=O)c1cnc(N[C@H]2CC[C@H](O)CC2)nc1NCC1CC1 [Example 226, 4-(cyclopropylmethylamino)-2-((1r,4r)-4-hydroxycyclohexylamino)pyrimidine-5-carboxamide] | < 200
CC(C)Nc1nc(NC(C)(C)C)ncc1C(N)=O [Example 227, 2-(tert-butylamino)-4-(isopropylamino)pyrimidine-5-carboxamide] | 200 to 800
CC(C)(C)CNc1nc(N[C@H]2CC[C@H](O)CC2)ncc1C(N)=O [Example 228, 2-((1r,4r)-4-hydroxycyclohexylamino)-4-(neopentylamino)pyrimidine-5-carboxamide] | < 200
NC(=O)c1cnc(NC23CCC(O)(CC2)CC3)nc1N[C@@H]1CCC[C@H](O)C1 [Example 229, 2-(4-hydroxybicyclo[2.2.2]octan-1-ylamino)-4-((1R,3S)-3-hydroxycyclohexylamino)pyrimidine-5-carboxamide] | < 200
COC12CCC(Nc3ncc(C(N)=O)c(N[C@@H]4CCC[C@H](O)C4)n3)(CC1)CC2 [Example 231, 4-((1R,3S)-3-hydroxycyclohexylamino)-2-(4-methoxybicyclo[2.2.2]octan-1-ylamino)pyrimidine-5-carboxamide] | < 200
NC(=O)c1cnc(NC23CCC(O)(CC2)CC3)nc1NC1CCC1 [Example 232, 4-(cyclobutylamino)-2-(4-hydroxybicyclo[2.2.2]octan-1-ylamino)pyrimidine-5-carboxamide] | < 200
CC(C)Nc1nc(N[C@H]2CCC[C@@H](O)CC2)ncc1C(N)=O [Example 233, 2-((1S,4R)-4-hydroxycycloheptylamino)-4-(isopropylamino)pyrimidine-5-carboxamide] | < 200
CC(C)Nc1nc(N[C@@H]2CCC[C@H](O)CC2)ncc1C(N)=O [Example 234, 2-((1R,4S)-4-hydroxycycloheptylamino)-4-(isopropylamino)pyrimidine-5-carboxamide] | < 200
NC(=O)c1cnc(N[C@H]2CC[C@H](O)CC2)nc1NC1COC1 [Example 235, 2-((1r,4r)-4-hydroxycyclohexylamino)-4-(oxetan-3-ylamino)pyrimidine-5-carboxamide] | < 200
